Laboratory results taken from ChEMBL document CHEMBL1201862, “PubChem BioAssay data set” (2004).
Values joined by “and” are separate entries in the source; they are usually repeats but may differ in a detail not shown here. Equal values may be shown once. Active and inactive are the calls of the source.

Tests used:
Escherichia coli [1] = test: microbe, parasite or virus in culture
[2] = HPDE-C7 pancreatic duct cell viability loss – fluorescence, HTS (AID 430); assay type: functional, cell-based; conditions: Homo sapiens
[3] = viability loss of HPDE-C7K cells – cell-based, fluorescence, HTS, primary screen (AID 431); assay type: functional; conditions: Homo sapiens
Escherichia coli [4] = test: microbe, parasite or virus in culture; remark: listed apart in the source
HEK293 [5] = test: inhibition of NOD1-driven NF-kB reporter – cell-based, luminescence, uHTS, primary screen (AID 1578); assay type: functional; conditions: Homo sapiens
HEK293 [6] = test: cells; assay type: functional, cell-based; conditions: Homo sapiens
HEK293 [7] = test: cells; assay type: functional, cell-based; conditions: Homo sapiens; remark: listed apart in the source
[8] = target: Nucleotide-binding oligomerization domain-containing protein 2 (Homo sapiens, UniProt Q9HC29); test: inhibition of NOD2-driven NF-kB reporter – cell-based, luminescence, uHTS, HEK293 (AID 1566); assay type: functional
HEK293 [9] = test: NOD2 signaling inhibitors in MDP-stimulated cells, cell-based, uHTS, luminescence (AID 2001); assay type: functional; conditions: Homo sapiens
HEK293 [10] = test: cells; assay type: functional, cell-based; conditions: Homo sapiens; remark: listed apart in the source
Tumor necrosis factor = Tumor necrosis factor (Homo sapiens, UniProt P01375); test: analog potency on TNFa NF-kB signaling – cell-based, revised, SAR follow-up (AID 2337); assay type: functional
[11] = target: T1, Nucleotide-binding oligomerization domain-containing protein 1 (Homo sapiens, UniProt Q9Y239); test: blockers of NOD1 pathway activity – revised, SAR follow-up (AID 2333); assay type: functional
T1 sequence (Q9Y239 whole entry): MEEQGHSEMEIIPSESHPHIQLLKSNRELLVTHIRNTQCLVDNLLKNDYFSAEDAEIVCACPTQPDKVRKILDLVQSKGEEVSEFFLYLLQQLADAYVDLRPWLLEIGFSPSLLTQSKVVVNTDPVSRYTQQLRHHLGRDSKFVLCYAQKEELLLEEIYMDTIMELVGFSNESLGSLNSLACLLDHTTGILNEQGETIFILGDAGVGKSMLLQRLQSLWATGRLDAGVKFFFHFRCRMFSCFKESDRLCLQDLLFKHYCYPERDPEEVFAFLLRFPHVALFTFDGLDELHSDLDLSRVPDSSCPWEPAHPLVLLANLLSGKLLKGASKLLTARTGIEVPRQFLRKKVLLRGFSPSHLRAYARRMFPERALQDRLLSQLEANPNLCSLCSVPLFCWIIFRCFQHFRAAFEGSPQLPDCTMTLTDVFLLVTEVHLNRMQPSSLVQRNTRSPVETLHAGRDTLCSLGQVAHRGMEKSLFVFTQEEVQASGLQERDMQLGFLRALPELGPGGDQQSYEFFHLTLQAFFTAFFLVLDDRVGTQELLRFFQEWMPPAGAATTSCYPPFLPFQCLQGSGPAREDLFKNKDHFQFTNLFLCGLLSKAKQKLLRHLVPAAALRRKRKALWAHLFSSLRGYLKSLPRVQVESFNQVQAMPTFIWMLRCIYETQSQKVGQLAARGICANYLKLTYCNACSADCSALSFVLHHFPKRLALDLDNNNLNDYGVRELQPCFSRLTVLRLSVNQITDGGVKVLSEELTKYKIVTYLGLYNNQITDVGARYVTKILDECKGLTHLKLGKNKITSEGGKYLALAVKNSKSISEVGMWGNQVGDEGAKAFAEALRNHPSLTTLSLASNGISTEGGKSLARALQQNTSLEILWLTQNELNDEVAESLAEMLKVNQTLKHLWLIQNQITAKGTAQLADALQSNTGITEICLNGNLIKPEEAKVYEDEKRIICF

Jurkat = test: blockers of NF-kB activation in T cells – Jurkat, luciferase reporter, luminescence, B- and T-cell, dose response (AID 489004); assay type: functional, cell-based; conditions: Homo sapiens;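 also: NF-kB luciferase reporter Jurkat cells stimulated with PMA plus ionomycin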
[12] = HEK-293T viability loss, compound-treated – cell-based, uHTS hits, cytotoxicity control for B/T-cell NF-kB inhibitor project, dose response (AID 489019); assay type: functional;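 also: IC50 reflects cytotoxicity as loss of cell viability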
INS1 = test: INS-1E survival protection against cytokine death – cell-based, luminescence, retest, dose response (AID 449756); assay type: functional; conditions: Rattus norvegicus;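 also: cell death triggered by IL-1 beta plus TNF-alpha plus IFN-gamma mixture; protective hits raise ATP signal compared with cytokine alone wells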
[13] = reduction of Shn3 3'UTR-driven luciferase in osteoblasts – cell-based, Clone20 osteoblasts, firefly luciferase, cherry-picked, dose response (AID 624132); assay type: functional;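 also: firefly luciferase luminescence from reporter carrying the Shn3 3'UTR in osteoblasts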
[14] = loss of viability in HepG2 cells – cell-based, CellTiter-Glo, cherry-picked, cytotoxicity control for Shn3 inhibitor project, dose response (AID 624134); assay type: functional
[15] = non-specific 3'UTR reporter inhibition in Clone20-Shn3RL – cell-based, Renilla luciferase, cherry-picked, counter-screen for Shn3 inhibitor project, dose response (AID 624133); assay type: functional
[16] = target: T2, COUP transcription factor 2 (Homo sapiens, UniProt P24468); test: Luminescence-based cell-based high throughput dose response assay to identify inhibitors of COUP-TFII (NR2F2).; assay type: functional;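 also: HEK293 cells transiently cotransfected with COUP-TFII expression vector and reporter; luciferase reporter luminescence driven by COUP-TFII from the pX2-168 reporter plasmid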
T2 sequence (P24468 whole entry): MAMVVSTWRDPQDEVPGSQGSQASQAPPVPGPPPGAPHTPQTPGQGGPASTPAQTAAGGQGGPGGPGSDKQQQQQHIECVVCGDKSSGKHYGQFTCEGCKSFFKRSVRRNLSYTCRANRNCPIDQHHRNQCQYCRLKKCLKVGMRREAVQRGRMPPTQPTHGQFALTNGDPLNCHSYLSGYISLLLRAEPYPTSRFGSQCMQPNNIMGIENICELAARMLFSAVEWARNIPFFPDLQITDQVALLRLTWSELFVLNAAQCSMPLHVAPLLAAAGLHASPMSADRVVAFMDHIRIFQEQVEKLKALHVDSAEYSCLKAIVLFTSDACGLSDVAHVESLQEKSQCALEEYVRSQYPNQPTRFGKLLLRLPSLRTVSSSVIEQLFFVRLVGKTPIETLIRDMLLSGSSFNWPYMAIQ

HEK293 [17] = test: cells; conditions: Homo sapiens
[18] = NIH-3T3 fibroblast cytotoxicity, dose response, cytotoxicity control, cell-based, fluorescence, Alamar Blue, secondary assay (AID 2327); assay type: functional;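 also: NIH-3T3 mouse fibroblasts cultured with fluconazole at 8 µg/mL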
[19] = test system: Streptococcus sp. 'group A'; test: Streptococcus pyogenes SK(-)GAS viability under kanamycin – luminescence, BacTiterGlo, confirmation, counter-screen for streptokinase expression inhibitor project, dose response (AID 1900); assay type: functional, organism-based
cells [20] = assay type: functional, cell-based
[21] = fluconazole-exposed Candida albicans growth modulators – fluorescence, retest, confirmation (AID 2467); assay type: functional, cell-based
cells [22] = assay type: functional, cell-based; remark: listed apart in the source
[23] = target: T3, Serine/threonine-protein phosphatase (Candida dubliniensis (strain CD36 / CBS 7987 / NCPF 3949 / NRRLY-17841) (Yeast), UniProt B9W6M3); test: blockers of CaCl2-induced CDRE-lacZ signaling – S. cerevisiae, luminescence, secondary, dose response (AID 2388); assay type: functional, cell-based;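 also: yeast reporter cells carrying a calcineurin-responsive lacZ construct stimulated with calcium chloride; luminescent beta-galactosidase reporter signal in whole cells rather than isolated phosphatase activity; potency for inhibition where a drop in reporter signal means calcineurin blockade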
T3 sequence (B9W6M3 whole entry): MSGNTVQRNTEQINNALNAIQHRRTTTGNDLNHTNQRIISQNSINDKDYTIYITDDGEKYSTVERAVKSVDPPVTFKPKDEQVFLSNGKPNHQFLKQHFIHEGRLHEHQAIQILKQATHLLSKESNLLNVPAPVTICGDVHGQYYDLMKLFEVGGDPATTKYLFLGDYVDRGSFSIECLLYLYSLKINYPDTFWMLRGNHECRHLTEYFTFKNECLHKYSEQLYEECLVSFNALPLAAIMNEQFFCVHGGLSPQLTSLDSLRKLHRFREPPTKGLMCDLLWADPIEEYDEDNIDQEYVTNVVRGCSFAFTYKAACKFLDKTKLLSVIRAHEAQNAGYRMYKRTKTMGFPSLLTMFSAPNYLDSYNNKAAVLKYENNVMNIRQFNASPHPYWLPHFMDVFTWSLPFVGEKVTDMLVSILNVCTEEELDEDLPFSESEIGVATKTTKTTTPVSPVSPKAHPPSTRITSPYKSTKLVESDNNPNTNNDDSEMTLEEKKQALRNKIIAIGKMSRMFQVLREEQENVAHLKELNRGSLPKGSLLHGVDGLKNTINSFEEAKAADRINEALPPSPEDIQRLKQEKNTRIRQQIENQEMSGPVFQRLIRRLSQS

Streptococcus = test: GAS UMAA2166 growth inhibition – luminescence, BacTiterGlo, counter-screen for streptokinase expression inhibitor project, dose response (AID 1915); assay type: functional, organism-based;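 also: potency for reduction of bacterial viability or growth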
[24] = Luminescence Cell-Based Dose Retest to Confirm Inhibitors of Cancer Stem Cells. [Related pubchem assays (depositor defined):AID2717, AID2721]; assay type: functional; conditions: Homo sapiens
[25] = target: T4, Microphthalmia-associated transcription factor (Homo sapiens, UniProt O75030); test: reducers of TRPM1 reporter luminescence, concentration series – cell-based, SK-MEL-5, cherry-picked, set 3, MITF inhibitor project, dose response (AID 493073); assay type: functional;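 also: SK-MEL-5 melanoma cells with luciferase driven by the MITF target TRPM1 promoter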
T4 sequence (O75030 whole entry): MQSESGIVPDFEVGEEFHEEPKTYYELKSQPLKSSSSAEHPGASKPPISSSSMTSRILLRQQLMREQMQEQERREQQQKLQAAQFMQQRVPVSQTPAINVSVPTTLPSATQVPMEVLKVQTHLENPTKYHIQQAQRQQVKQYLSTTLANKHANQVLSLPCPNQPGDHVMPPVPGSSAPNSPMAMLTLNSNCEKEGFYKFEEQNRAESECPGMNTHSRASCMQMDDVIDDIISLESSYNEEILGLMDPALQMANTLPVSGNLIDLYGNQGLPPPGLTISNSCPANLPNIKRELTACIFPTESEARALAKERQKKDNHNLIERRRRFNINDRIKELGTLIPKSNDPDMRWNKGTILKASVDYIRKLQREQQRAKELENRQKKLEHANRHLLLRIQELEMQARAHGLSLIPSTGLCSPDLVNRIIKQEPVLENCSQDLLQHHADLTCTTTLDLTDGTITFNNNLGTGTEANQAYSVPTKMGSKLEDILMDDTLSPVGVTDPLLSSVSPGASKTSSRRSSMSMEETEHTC

Phospholipase A2 = Phospholipase A2 (Homo sapiens, UniProt P04054); test: phospholipase A2 activity inhibition – biochemical, set 2, counter-screen for ATG4B inhibitor project, dose response (AID 588586); assay type: functional
Cysteine protease ATG4B = target: T5, Cysteine protease ATG4B (Homo sapiens, UniProt Q9Y4P1); test: autophagin-1 cysteine protease inhibition – biochemical, fluorescence, set 2, dose response (AID 588584); assay type: functional
T5 sequence (Q9Y4P1 whole entry): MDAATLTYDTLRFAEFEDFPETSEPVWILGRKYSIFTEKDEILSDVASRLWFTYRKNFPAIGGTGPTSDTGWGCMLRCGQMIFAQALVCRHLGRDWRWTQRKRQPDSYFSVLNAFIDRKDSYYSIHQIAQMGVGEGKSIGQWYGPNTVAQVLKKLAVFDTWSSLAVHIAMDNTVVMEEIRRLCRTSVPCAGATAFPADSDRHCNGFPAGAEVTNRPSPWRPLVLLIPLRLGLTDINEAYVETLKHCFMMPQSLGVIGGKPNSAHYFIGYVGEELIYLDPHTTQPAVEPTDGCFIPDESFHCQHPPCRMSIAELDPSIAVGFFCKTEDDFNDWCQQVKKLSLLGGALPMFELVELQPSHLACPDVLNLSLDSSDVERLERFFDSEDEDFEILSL

[26] = target: ATP-dependent molecular chaperone HSP82 (Candida albicans (strain WO-1) (Yeast), UniProt C4YTQ8); test: steroid-induced GRE reporter decrease in yeast – S. cerevisiae, luminescence, Hsp90 inhibitor project, dose response (AID 2400); assay type: functional, cell-based;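 also: beta-galactosidase luminescence from glucocorticoid response element reporter as proxy for Hsp90 function; inhibitor potency where signal loss means Hsp90 inhibition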
Cytochrome P450 2D6 = Cytochrome P450 2D6 (Homo sapiens, UniProt P10635);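 also: CYP2D6 member of a cytochrome P450 panel assay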
Sequence of Cytochrome P450 2D6 (P10635 whole entry): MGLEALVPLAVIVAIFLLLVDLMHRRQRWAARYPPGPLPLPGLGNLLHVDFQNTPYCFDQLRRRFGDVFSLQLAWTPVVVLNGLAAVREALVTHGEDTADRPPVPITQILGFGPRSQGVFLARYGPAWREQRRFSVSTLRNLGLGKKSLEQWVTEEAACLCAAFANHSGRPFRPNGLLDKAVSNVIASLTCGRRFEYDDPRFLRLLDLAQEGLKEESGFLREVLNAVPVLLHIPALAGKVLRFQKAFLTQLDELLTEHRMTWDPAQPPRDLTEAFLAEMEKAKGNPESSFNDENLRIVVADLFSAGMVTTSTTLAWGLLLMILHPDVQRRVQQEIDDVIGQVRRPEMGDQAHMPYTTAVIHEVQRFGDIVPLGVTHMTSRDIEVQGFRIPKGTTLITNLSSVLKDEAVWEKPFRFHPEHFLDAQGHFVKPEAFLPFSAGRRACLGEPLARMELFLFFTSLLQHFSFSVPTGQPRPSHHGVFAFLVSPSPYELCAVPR

Sequence of Tumor necrosis factor (P01375 whole entry, the tested form may be a part): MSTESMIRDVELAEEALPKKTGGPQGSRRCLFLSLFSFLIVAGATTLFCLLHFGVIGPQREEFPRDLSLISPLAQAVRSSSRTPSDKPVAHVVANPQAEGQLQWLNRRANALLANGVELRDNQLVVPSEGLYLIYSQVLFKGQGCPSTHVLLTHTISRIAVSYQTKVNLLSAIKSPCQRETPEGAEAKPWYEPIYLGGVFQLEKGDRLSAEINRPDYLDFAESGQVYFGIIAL
Sequence of Phospholipase A2 (P04054 whole entry): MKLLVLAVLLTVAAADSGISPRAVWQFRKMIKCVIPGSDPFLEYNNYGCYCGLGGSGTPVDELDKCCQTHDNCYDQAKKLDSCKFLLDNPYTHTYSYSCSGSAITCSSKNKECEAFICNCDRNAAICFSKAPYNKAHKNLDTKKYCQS
Sequence of Nucleotide-binding oligomerization domain-containing protein 2 (Q9HC29 whole entry, the tested form may be a part): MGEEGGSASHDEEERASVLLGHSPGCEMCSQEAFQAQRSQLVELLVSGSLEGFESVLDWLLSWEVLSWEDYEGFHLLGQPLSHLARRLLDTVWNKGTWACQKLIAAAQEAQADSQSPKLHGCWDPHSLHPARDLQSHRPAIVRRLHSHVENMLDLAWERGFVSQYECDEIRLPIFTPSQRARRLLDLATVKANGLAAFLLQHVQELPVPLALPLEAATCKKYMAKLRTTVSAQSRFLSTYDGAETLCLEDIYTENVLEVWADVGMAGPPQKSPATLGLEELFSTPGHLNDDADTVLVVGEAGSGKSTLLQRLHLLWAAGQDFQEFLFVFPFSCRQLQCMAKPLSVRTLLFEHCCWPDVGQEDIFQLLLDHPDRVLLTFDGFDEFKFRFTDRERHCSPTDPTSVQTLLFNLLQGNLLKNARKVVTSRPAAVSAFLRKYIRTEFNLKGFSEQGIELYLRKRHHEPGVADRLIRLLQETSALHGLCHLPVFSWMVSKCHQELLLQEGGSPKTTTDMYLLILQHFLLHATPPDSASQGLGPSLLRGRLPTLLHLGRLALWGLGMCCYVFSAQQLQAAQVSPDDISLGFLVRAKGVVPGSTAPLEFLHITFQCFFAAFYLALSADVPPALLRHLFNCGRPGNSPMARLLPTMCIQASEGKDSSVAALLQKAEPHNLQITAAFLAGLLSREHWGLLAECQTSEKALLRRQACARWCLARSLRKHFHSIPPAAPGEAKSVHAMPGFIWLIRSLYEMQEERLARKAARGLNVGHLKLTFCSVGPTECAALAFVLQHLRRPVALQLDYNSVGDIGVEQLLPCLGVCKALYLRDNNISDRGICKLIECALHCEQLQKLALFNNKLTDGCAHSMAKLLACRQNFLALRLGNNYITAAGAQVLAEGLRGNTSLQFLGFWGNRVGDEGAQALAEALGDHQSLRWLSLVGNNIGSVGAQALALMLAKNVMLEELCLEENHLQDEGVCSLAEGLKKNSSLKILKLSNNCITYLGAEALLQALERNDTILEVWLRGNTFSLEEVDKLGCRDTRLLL
Sequence of ATP-dependent molecular chaperone HSP82 (C4YTQ8 whole entry): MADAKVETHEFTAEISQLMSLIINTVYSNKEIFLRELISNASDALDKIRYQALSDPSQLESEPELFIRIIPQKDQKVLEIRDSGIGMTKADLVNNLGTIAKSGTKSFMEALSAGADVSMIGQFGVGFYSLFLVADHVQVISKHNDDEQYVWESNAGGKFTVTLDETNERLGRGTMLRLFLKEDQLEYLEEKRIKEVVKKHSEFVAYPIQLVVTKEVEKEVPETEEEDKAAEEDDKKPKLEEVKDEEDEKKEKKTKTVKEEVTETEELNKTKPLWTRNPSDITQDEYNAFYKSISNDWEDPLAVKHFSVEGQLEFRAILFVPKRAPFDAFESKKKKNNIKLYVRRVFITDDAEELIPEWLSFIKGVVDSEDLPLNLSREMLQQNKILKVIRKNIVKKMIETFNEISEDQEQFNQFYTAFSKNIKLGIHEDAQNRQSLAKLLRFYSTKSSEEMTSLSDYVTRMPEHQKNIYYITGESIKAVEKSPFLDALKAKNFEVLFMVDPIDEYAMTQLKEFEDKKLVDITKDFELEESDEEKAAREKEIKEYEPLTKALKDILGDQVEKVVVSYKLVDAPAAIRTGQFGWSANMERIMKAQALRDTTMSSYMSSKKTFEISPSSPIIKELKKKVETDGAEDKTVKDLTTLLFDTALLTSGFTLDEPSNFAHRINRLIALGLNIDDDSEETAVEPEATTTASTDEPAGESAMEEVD

COC(=O)c1c(NC(=O)C(=O)NCCCN2CCOCC2)sc2c1CCCC2
active: AC50 (Escherichia coli [1]) 19.8 µM

CC(C)CCNC(=O)c1c(N)n(CC2CCCO2)c2nc3ccccc3nc12 (stereo unspecified)
active: EC50 [2] 13.2 µM | EC50 [3] 13.6 µM | AC50 (Escherichia coli [4]) 16.3 µM

Cn1nccc1C(=O)NC1CCCc2c1cnn2-c1ccccc1F (stereo unspecified)
inactive: IC50 (HEK293 [10]) > 20 µM | IC50 (Jurkat) > 80 µM | IC50 [12] > 80 µM | IC50 (HEK293 [17]) > 20 µM
active: EC50 (HEK293 [5]) 0.62 µM | IC50 (HEK293 [6]) 2.36 µM | IC50 (HEK293 [7]) 13.8 µM | EC50 [8] 0.61 µM | IC50 (HEK293 [9]) 2.71 µM | IC50 (Tumor necrosis factor) 4.28 µM and 14.6 µM | IC50 [11] 968 nM and 825 nM | AC50 (INS1) 2.26 µM | AC50 [13] 0.37 µM | AC50 [14] 0.472 µM | AC50 [15] 3.96 µM | IC50 [16] 1.51 µM

Cc1c(Cl)c([N+](=O)[O-])nn1Cc1ccc(C(=O)N/N=C\c2cc(Cl)ccc2O)o1
inactive: EC50 [18] > 160 µM | EC50 [23] > 180 µM | IC50 (Cysteine protease ATG4B) 21 µM
active: EC50 [19] 2.03 µM | EC50 (cells [20]) 9.68 µM | EC50 [21] 0.754 µM | EC50 (cells [22]) 89 µM | EC50 (Streptococcus) 2.38 µM | AC50 [24] 3.28 µM | AC50 [25] 3.47 µM | IC50 (Phospholipase A2) 5.5 µM | AC50 (INS1) 1.67 µM | EC50 [26] 29.5 µM
inconclusive: AC50 (Cytochrome P450 2D6) 11.2 µM

CC(C)Cc1ccc(CN2CCCC(NC(=O)Cn3cnnn3)C2)cc1 (stereo unspecified)
active: AC50 (Escherichia coli [4]) 103 µM

CCOC(=O)CC(=O)Nc1ccccc1C(=O)O
active: AC50 (Escherichia coli [1]) 27 µM
